Values after ≈ are worked out from the molar mass of the structure shown. Active and inactive are the calls of the source. No cut-off for these calls is given here.
Legend:
[1] = molecular target: T1, P2Y purinoceptor 14 (Homo sapiens) (UniProt Q15391); settings: time 30.0 min
T1 sequence (whole entry): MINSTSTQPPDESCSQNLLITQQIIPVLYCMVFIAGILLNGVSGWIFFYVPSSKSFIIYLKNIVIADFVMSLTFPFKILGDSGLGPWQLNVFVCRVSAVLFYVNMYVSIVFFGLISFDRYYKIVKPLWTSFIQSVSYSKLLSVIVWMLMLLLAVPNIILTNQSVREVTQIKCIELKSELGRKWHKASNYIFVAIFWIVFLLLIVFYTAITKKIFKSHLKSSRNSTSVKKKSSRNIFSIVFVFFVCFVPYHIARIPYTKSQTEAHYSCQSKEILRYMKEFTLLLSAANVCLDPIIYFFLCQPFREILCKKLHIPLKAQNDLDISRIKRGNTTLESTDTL

P2Y purinoceptor 14 = molecular target: T2, P2Y purinoceptor 14 (Homo sapiens, UniProt Q15391); test: Antagonist activity at P2Y14 (unknown origin) expressed in HEK293 cells assessed as reduction in cAMP production incubated for 30 mins by ADP-glo assay; assay type: functional, cell-based
T2 sequence (Q15391 whole entry): T1 sequence (whole entry)

[2] = Chemical stability of compound in DMSO; assay type: physicochemical
[3] = Oral bioavailability in mouse at 10 mg/kg; assay type: ADME, organism-based; settings: in vivo
[4] = Aqueous solubility of compound in PBS buffer at pH 7.4 incubated for overnight by UV-spectrometry; assay type: physicochemical
Mus musculus [5] = test: Antiarthritic activity against MSU-induced acute gout arthritis ICR mouse model assessed as reduction in paw swelling at 10 mg/kg, sc measured upto 24 hrs; assay type: functional, organism-based; settings: time hrs <=24
Mus musculus [6] = test: Antiarthritic activity against MSU-induced acute gout arthritis ICR mouse model assessed as reduction in infiltration of inflammatory cells at 10 mg/kg, sc measured upto 24 hrs; assay type: functional, organism-based; settings: time hrs <=24
Mus musculus [7] = test: Downregulation of MSU-induced NLRP3 expression in foot tissue of MSU-induced acute gout arthritis ICR mouse model at 10 mg/kg, sc measured upto 24 hrs by Western blot analysis; assay type: functional, organism-based; settings: time hrs <=24
Mus musculus [8] = test: Downregulation of MSU-induced ASC expression in foot tissue of MSU-induced acute gout arthritis ICR mouse model at 10 mg/kg, sc measured upto 24 hrs by Western blot analysis; assay type: functional, organism-based; settings: time hrs <=24
Mus musculus [9] = test: Downregulation of MSU-induced caspase-1 P20 expression in foot tissue of MSU-induced acute gout arthritis ICR mouse model at 10 mg/kg, sc measured upto 24 hrs by Western blot analysis; assay type: functional, organism-based; settings: time hrs <=24
Mus musculus [10] = test: Inhibition of MSU-induced IL-1beta level in foot tissue of MSU-induced acute gout arthritis ICR mouse model at 10 mg/kg, sc measured upto 24 hrs by Western blot analysis; assay type: functional, organism-based; settings: time hrs <=24
Mus musculus [11] = test: Inhibition of MSU-induced IL-8 level in foot tissue of MSU-induced acute gout arthritis ICR mouse model at 10 mg/kg, sc measured upto 24 hrs by Western blot analysis; assay type: functional, organism-based; settings: time hrs <=24
Mus musculus [12] = test: Inhibition of MSU-induced GSDMD-NT level in foot tissue of MSU-induced acute gout arthritis ICR mouse model at 10 mg/kg, sc measured upto 24 hrs by Western blot analysis; assay type: functional, organism-based; settings: time hrs <=24
[13] = In vivo inhibition of MSU-induced pyroptosis in ICR mouse model of acute gout arthritis assessed as viable macrophage cells in foot tissue at 10 mg/kg, sc incubated for 24 hrs by caspase-1 and PI staining based flow cytometric analysis (reference value: 34.3 %); assay type: functional
[14] = In vivo inhibition of MSU-induced pyroptosis in ICR mouse model of acute gout arthritis assessed as early apoptotic macrophage cells in foot tissue at 10 mg/kg, sc incubated for 24 hrs by caspase-1 and PI staining based flow cytometric analysis (reference value: 12.7 %); assay type: functional
[15] = In vivo inhibition of MSU-induced pyroptosis in ICR mouse model of acute gout arthritis assessed as late apoptotic macrophage cells in foot tissue at 10 mg/kg, sc incubated for 24 hrs by caspase-1 and PI staining based flow cytometric analysis (reference value: 21.6 %); assay type: functional
[16] = In vivo inhibition of MSU-induced pyroptosis in ICR mouse model of acute gout arthritis assessed as necrotic macrophage cells in foot tissue at 10 mg/kg, sc incubated for 24 hrs by caspase-1 and PI staining based flow cytometric analysis (reference value: 31.4 %); assay type: functional
[17] = Metabolic stability in human liver microsomes assessed as half life at […] incubated for 45 mins by LC-MS/MS analysis; assay type: ADME, Microsome
[18] = Cmax in mouse at 5 mg/kg, iv; assay type: ADME, organism-based; set-up: route intravenous, dose 5 mg/kg; settings: in vivo
[19] = Half life in mouse at 5 mg/kg, iv; assay type: ADME, organism-based; settings: in vivo
[20] = AUC in mouse at 5 mg/kg, iv; assay type: ADME, organism-based; set-up: dose 5 mg/kg; settings: in vivo
[21] = Volume of distribution at steady state in mouse at 5 mg/kg, iv; assay type: ADME, organism-based; settings: in vivo, read-out: Vdss
[22] = Tmax in mouse at 5 mg/kg, iv; assay type: ADME, organism-based; settings: in vivo
[23] = Cmax in mouse at 10 mg/kg, po; assay type: ADME, organism-based; set-up: route oral, dose 10 mg/kg; settings: in vivo
[24] = Half life in mouse at 10 mg/kg, po; assay type: ADME, organism-based; settings: in vivo
[25] = AUC in mouse at 10 mg/kg, po; assay type: ADME, organism-based; set-up: dose 10 mg/kg; settings: in vivo
[26] = Volume of distribution at steady state in mouse at 10 mg/kg, po; assay type: ADME, organism-based; settings: in vivo
[27] = Clearance in mouse at 10 mg/kg, po; assay type: ADME, organism-based; settings: in vivo
[28] = HEK293, filed as antagonist, dose 100.0 nM

Cc1ccc(C(=O)Nc2cc(C(=O)O)cc(-c3ccc(C)s3)c2)cc1
inhibition [1, 28]: 60.2%

Cc1ccc(C(=O)Nc2cc(C(=O)O)cc(-c3cnc(N)nc3)c2)cc1
inhibition [1, 28]: 68.6%

Cc1ccc(C(=O)Nc2cc(C(=O)O)cc(-c3c(C)noc3C)c2)cc1
IC50 (P2Y purinoceptor 14): 2.95 nM
Stabilty [2]: Unstable
inhibition [1, 28]: 82.3%

O=C(O)c1cc(-c2ccc(C3CCNCC3)cc2)c2ccc(-c3ccc(C(F)(F)F)cc3)cc2c1 [PPTN]
bioavailability [3]: 7%
solubility [4]: < 5 µg/mL
Activity (Mus musculus [5]): Active
Activity (Mus musculus [6]): Active
Activity (Mus musculus [7]): Active
Activity (Mus musculus [8]): Active
Activity (Mus musculus [9]): Active
inhibition (Mus musculus [10]): Active
inhibition (Mus musculus [11]): Active
inhibition (Mus musculus [12]): Active
inhibition in vivo at 10 mg/kg [13]: 65.1%
inhibition in vivo at 10 mg/kg [14]: 17.3%
inhibition in vivo at 10 mg/kg [15]: 6.41%
inhibition in vivo at 10 mg/kg [16]: 11.1%

Cc1ccc(C(=O)Nc2cc(C(=O)O)cc(-c3ccc(C)o3)c2)cc1
inhibition ([1]; HEK293, dose 100.0 nM): 16.1%

Cc1ccc(C(=O)Nc2cc(C(=O)O)cc(-c3ccoc3)c2)cc1
IC50 (P2Y purinoceptor 14): 2.18 nM
Stabilty [2]: Stable
half-life [17]: > 1 h
Cmax [18]: 19300 ng/mL
half-life [19]: 2.32 h
AUC [20]: 843849 ng·min/mL
Vd [21]: 0.782 L/kg
Tmax [22]: 5 min
Cmax [23]: 1800 ng/mL
half-life [24]: 2.56 h
AUC [25]: 7280 ng·h/mL
Vdss [26]: 0.21267 L/kg
CL/F [27]: 6.03 mL/min/kg
bioavailability [3]: 48.3%
solubility [4]: 77.6 µg/mL (≈ 241 µM)
Activity (Mus musculus [5]): Active
Activity (Mus musculus [6]): Active
Activity (Mus musculus [7]): Active
Activity (Mus musculus [8]): Active
Activity (Mus musculus [9]): Active
inhibition (Mus musculus [10]): Active
inhibition (Mus musculus [11]): Active
inhibition (Mus musculus [12]): Active
inhibition in vivo at 10 mg/kg [13]: 43.2%
inhibition in vivo at 10 mg/kg [14]: 13%
inhibition in vivo at 10 mg/kg [15]: 10.9%
inhibition in vivo at 10 mg/kg [16]: 33%
inhibition [1, 28]: 93.4%

COc1ncc(-c2cc(NC(=O)c3ccc(C)cc3)cc(C(=O)O)c2)cn1
inhibition [1, 28]: 72.5%

Cc1ccc(C(=O)Nc2cc(C(=O)O)cc(-c3ccsc3)c2)cc1
IC50 (P2Y purinoceptor 14): 9.74 nM
inhibition [1, 28]: 83%

Cc1ccc(C(=O)Nc2cc(C(=O)O)cc(-c3cccnc3)c2)cc1
inhibition [1, 28]: 79.1%

COc1ccc(-c2cc(NC(=O)c3ccc(C)cc3)cc(C(=O)O)c2)cc1
inhibition [1, 28]: 79.1%

Cc1ccc(C(=O)Nc2cc(C(=O)O)cc(-c3ccncc3)c2)cc1
inhibition [1, 28]: 72.1%

Cc1ccc(C(=O)Nc2cc(C(=O)O)cc(-c3ccc[nH]3)c2)cc1
inhibition [1, 28]: 46%

Cc1ccc(C(=O)Nc2cc(C(=O)O)cc(-c3ccccc3)c2)cc1
IC50 (P2Y purinoceptor 14): 4.85 nM
solubility [4]: 46.3 µg/mL (≈ 140 µM)
inhibition [1, 28]: 87%

Cc1ccc(C(=O)Nc2cc(C(=O)O)cc(-c3ccco3)c2)cc1
inhibition [1, 28]: 61.1%

Cc1ccc(C(=O)Nc2cc(C(=O)O)cc(-c3cc[nH]n3)c2)cc1
IC50 (P2Y purinoceptor 14): 2.63 nM
Stabilty [2]: Unstable
inhibition [1, 28]: 86.8%

Cc1ccc(C(=O)Nc2cc(C(=O)O)cc(-c3cccs3)c2)cc1
inhibition [1, 28]: 68.8%

Cc1ccc(C(=O)Nc2cc(C(=O)O)cc(-c3ccc(C4CCNCC4)cc3)c2)cc1
bioavailability [3]: 6%
inhibition [1, 28]: 85.3%

Cc1ccc(C(=O)Nc2cc(C(=O)O)cc(-c3cncnc3)c2)cc1
inhibition [1, 28]: 65.7%

CC(=O)c1ccc(-c2cc(NC(=O)c3ccc(C)cc3)cc(C(=O)O)c2)s1
inhibition [1, 28]: 43.7%

Source: ChEMBL document CHEMBL4813969, “Design, synthesis and evaluation of 3-amide-5-aryl benzoic acid derivatives as novel P2Y14R antagonists with potential high efficiency against acute gouty arthritis” (Eur J Med Chem, 2021)
